Experimental data from PMC11116084 (Journal of Applied Glycoscience, 2024).

Test system: ALMAN (Allium cepa α-mannosidase)
Test: p-nitrophenol release, absorption at […] nm
Assay type: biochemical
Conditions: 20 mM sodium acetate pH 4.0, 40 °C (standard assay)

Km: 1690 µM
SMILES: O=[N+]([O-])c1ccc(O[C@H]2O[C@H](CO)[C@@H](O)[C@H](O)[C@@H]2O)cc1 [pNP-α-Man]
